From patent publication US10407388B2, “Thiourea derivatives as activators of RORα and pharmaceutical composition containing same” (SEOUL NATIONAL UNIVERSITY R & DB FOUNDATION, priority 2011, dated 2019)

Tests used:
[1] = tested on: FAS; assay: Expression of FAS protein in liver of mice with high-fat diet-induced fatty liver, western blotting; assay type: in vivo; details: oral, 10 mg/kg/day or 30 mg/kg/day for 2 days; liver tissue; FIG. 11b
Experimental: (§1) 3 days after the diet was fed, the mice were fed the high-fat diet containing safflower oil while being orally administered JC1-40 and JC1-42, which had been diluted with 0.5% carboxymethyl cellulose, at a dose of 10 mg/kg/day or 30 mg/kg/day for 2 days. 5 days after the diet was fed, the mice were sacrificed to extract liver tissues therefrom, and the expression of proteins was analyzed by western blotting analysis. That is, after treatment, each liver tissue was homogenized in a lysis buffer containing 50 mM NaCl, 50 mM Tris pH 7.4, 5 mM EDTA, 1% NP-40, and a protease inhibitor, and then centrifuged to obtain a total cell lysate. 20 μg to 30 μg of proteins collected from the total cell lysate was subjected to 7% to 9% SDS-PAGE, and was transferred to a polyvinylidene difluoride membrane (Millipore, Bedford, Mass., USA). […] Immunoreactive proteins were detected with Amersham ECL western blotting detection reagents using an HRP-conjugated secondary antibody (Zymed Lab). Protein concentrations were quantified by BCA (Pierce) analysis, and the expression of α-tubulin was monitored as a control. […]

[2] = tested on: AMPK; assay: Phosphorylation of AMPK in liver of mice with high-fat diet-induced fatty liver, western blotting; assay type: in vivo; details: oral, 10 mg/kg/day or 30 mg/kg/day for 2 days; liver tissue; FIG. 11b
Experimental: as §1

[3] = tested on: HepG2 cells; assay: Lipid accumulation in hepatocytes, Nile red staining and flow cytometry; assay type: cell-based, human; details: 50 μM with oleic acid/palmitic acid mixture, 3 days; FIGS. 10a and 10b
Experimental: HepG2 cells (3×10^5 cells/well) were seeded on a 60-dish and cultured overnight in a DMEM containing 10% FBS. The HepG2 cells were maintained at 37° C. in a humidification thermostat containing 5% CO2 and 95% air. After culturing, the HepG2 cells were treated with 50 μM JC1-40 (or JC1-42) and, as a lipid generation inducing material, a fatty acid mixture prepared by mixing 0.5 mM oleic acid and 0.5 mM palmitic acid in a ratio of 2:1 (5 mM oleic acid and 5 mM palmitic acid were mixed in a medium containing 1% fatty acid-free bovine serum albumin (BSA) and diluted to the final concentration prior to use) for 3 days. After 3 days, cell lysates were collected, and stained with 1 μg/ml of Nile red at room temperature for 15 minutes, and the concentration of triglycerides was measured by a flow cytometry method using a FACSCalibur™ machine (BD Biosciences). Fluorescence emission was measured at a wavelength between 500 nm and 580 nm. The results thereof are illustrated in FIGS. 10a and 10b.

[4] = tested on: high-fat diet-induced fatty liver mice model; assay: Blood biochemical analysis in high-fat diet-induced fatty liver mice model; assay type: in vivo; details: FIG. 13; for amount of blood triglycerides, which had been increased by the high-fat diet / amount of blood glucose / amount of total blood cholesterol: oral, 10 mg/kg/day or 30 mg/kg/day for 2 days; for amount of blood glucose / amount of total blood cholesterol: versus high-fat diet group
Experimental: 3 days after the diet was fed, the mice were fed the high-fat diet containing safflower oil while being orally administered JC1-40 and JC142, which had been diluted with 0.5% carboxymethyl cellulose, at a dose of 10 mg/kg/day or 30 mg/kg/day for 2 days. 5 days after the diet was fed, the mice were sacrificed to collect blood, and serum samples were collected therefrom.

[5] = tested on: white mice, common carotid artery damaged by balloon catheter; assay: Inner vascular proliferation after balloon dilatation; assay type: in vivo; details: oral, 5 mg/kg, 14 days after balloon dilatation; H&E staining; FIG. 15
Experimental: To verify the inhibition of angiostenosis by JC1-40, white mice were administered JC1-40 for […], followed by balloon dilatation and subsequent additional administration of JC1-40 for 14 days. An experimental group was orally administered JC1-40 at a dose of 5 mg/kg (in 0.5% carboxymethyl cellulose, 2 ml/kg) (n=5), and a control was orally administered 0.5% carboxymethlycellulose at a dose of […] (n=5). The balloon dilatation was performed as follows. The cervical portion of each with mouse was incised to expose a common carotid artery, and the internal branch was tied at a site where the common carotid artery branches into the external branch and the internal branch. The external branch was partially incised, and then ballooning was performed three times with a 2F Fogarty balloon catheter to damage blood vessels. Subsequently, the balloon catheter was removed, and the incision site was tied. After balloon dilatation, the white mice were administered the drug for 14 days and then sacrificed to cut the site in artery that included the damaged region. The obtained blood vessels of each of the JC1-40 experimental group and the control were sectioned, the inner vascular layer thereof was subjected to Hematoxylin and Eosin (H&E) staining, and then the effect of JC1-40 on the inhibition of inner vascular proliferation was examined, and the results thereof are illustrated in FIG. 15. […]

[6] = tested on: MCP-1; assay: MCP-1 in alcoholic fatty liver mice model (ELISA, western blotting); assay type: in vivo, mice (C57BL/6); details: oral, 10 mg/kg body weight once a day for 2 weeks, alcohol group
Experimental: (§2) Eight-week-old black male laboratory mice (C57BL/6) were divided into: 1) control (n=8); 2) JC1-40-administered control (n=8); 3) alcohol group (n=12); and 4) JC1-40-administered alcohol group (n=12), and fed a Lieber-DeCarli liquid diet (Dyets Inc, Bethlehem, Pa., USA). The Lieber-DeCarli liquid diet in the form of powder was purchased, and then water was added thereto every morning to form a liquid-type feed such that 1 ml of the feed contained 1 kcal. The alcohol group was fed a gradually increasing amount of alcohol with an increment of 0.5% during a 2-week adaptation period, and then was fed a feed containing 5% alcohol for 5 weeks. The feed of the control included maltose dextrin instead of alcohol, and for pair-feeding, the feed included maltose dextrin in an amount providing the same calories as the calories that the amount of the feed fed to the mice of the alcohol group contained. During the 5-week ingestion of 5% alcohol, JC1-40 diluted with 0.5% carboxymethyl cellulose was orally administered once a day at a dose of 10 mg/kg body weight for 2 weeks prior to sacrificing the mice. After the 5-week alcohol feeding period was completed, the mice were fasted for 12 hours, and anesthetized to incise the abdomen, and blood and liver were removed from each mouse.

[7] = tested on: alcoholic fatty liver mice model; assay: Alcoholic fatty liver mice model (Lieber-DeCarli liquid diet); assay type: in vivo, mice (C57BL/6); details: oral, 10 mg/kg body weight once a day for 2 weeks
Experimental: as §2

[8] = 30 mg/kg/day, compared to the high-fat diet group

lipid accumulation in hepatocytes [3] | SMILES | expression of FAS protein, which had been increased by the high-fat diet [1] | phosphorylation of AMPK [2] | amount of high-density lipoproteins [4, 8] | amount of blood triglycerides, which had been increased by the high-fat diet [4] | amount of blood glucose [4] | amount of total blood cholesterol [4] | proliferation of the inner vascular layer by balloon dilatation [5] | level of cytokine MCP-1 (ELISA) ([6]; FIG. 16c) | expression of the MCP-1 protein (western blotting) ([6]; FIG. 16e) | GOP [4, 8] | GPT [4, 8] | GOT in plasma ([7]; alcohol group, FIG. 16a) | GPT in plasma ([7]; alcohol group, FIG. 16a) | level of blood triglycerides ([7]; alcohol group, FIG. 16b) | weight percentage of liver in body ([7]; alcohol group, FIG. 16d) | accumulation of alcohol-induced lipid vesicles (Hematoxyllin & Eosin) ([7]; liver tissue)
significantly decreased | CNC(=S)NCc1ccc(Oc2ccccc2)cc1 [Compound 42, 1-(4-phenoxy-benzyl)-3-methyl-thiourea] | decreased | increased | increased | decreased | not different from those in the high-fat diet group | not different from those in the high-fat diet group | – | – | – | – | – | – | – | – | – | –
significantly decreased | CNC(=S)NCc1ccc(OCc2ccccc2)cc1 [Compound 40, 1-(4-benzyloxy-benzyl)-3-methyl-thiourea] | decreased | increased | increased | decreased | not different from those in the high-fat diet group | not different from those in the high-fat diet group | inhibited | significantly decreased | decreased to the level of the control | decreased | decreased | decreases in GPT and GOT to levels of the control | decreases in GPT and GOT to levels of the control | significantly decreased | decreased with high significance | significantly reduced
